Experimental data as given in patent publication US20250129021A1, “SMALL MOLECULE PROTEIN SYNTHESIS MODULATORS” (Interdict Bio, Inc., priority 2023, published 2025).
Counter-ions that a name gives are not always drawn.

Assays:
ALK = experiment: In vitro transcription-translation (IVTT) assay, ALK reporter; assay type: biochemical; settings: HeLa S3 lysate, sfGFP/mCherry ratio, 2 hrs at 30° C.
Description: All reporter constructs have been cloned into the pT7CFE1-CHis plasmid (ThermoFisher #88860) using Gibson assembly procedures (NEB #E2611L). The parental pT7CFE1-CHis plasmid contains an EMCV IRES at the 5′UTR for translation initiation, a multiple-cloning site (MCS) for gene insertion, an optional C-terminal His-epitope tag, and polyA sequence in the 3′UTR to regulate mRNA stability. All reporters are designed to be inserted at the MCS to include a red fluorescent protein (mCherry), P2A self-cleaving peptide which releases the preceding mCherry protein product, and a fusion open reading frame containing a 3×FLAG epitope, a peptide sequence of interest (TEST), and green fluorescent protein (sfGFP).
Construct Plasmid Preparation: All plasmids are isolated from MACH1 cells (ThermoFisher) grown overnight in ampicillin-containing luria broth, and purified using ZymoPure Express Plasmid Midiprep Kit (Zymo Research). Constructs are sequenced verified and diluted to a working concentration of 110 ng/μL.
HeLa S3 Lysate Preparation: HeLa S3 cell pellets are acquired from Ipracell/Ipratech (Belgium) and shipped as 4 mL frozen cell pellets on dry ice for storage at −80° C. until use. The procedure for lysate preparation is as follows. Prepare 1× Lysis Buffer, cold and stored on ice:
Each preparation takes 8 cell pellets (4 ml packed volume each, approximately 1.0×10^9 cells per pellet). Thaw cell pellets from −80° C. on ice for 90 mins. Lay pellets horizontally on top of the ice and rotate every 30 mins to ensure even thawing. Once thawed, add 4 mL of cold lysis buffer to each pellet, and using a serological pipet, gently pipet up and down to break up clumps. Incubate resuspended cells in ice for an additional 30 mins (plunged into ice). During 30 min incubation, rinse and RNase-zap (Ambion) glass dounces (use loose pestle “A”), gently dry and place on ice until needed. Prepare RNase-free Eppendorf tubes for spinning and for batch storage. Add batch labels to 1.5-1.7 mL RNase-free microcentrifuge tubes (labeling scheme below). Each batch will have an extra 1.5-1.7 mL RNase-free microcentrifuge tube for 40 μL of lysate, label the top of this tube (labeling scheme below). After 30 min incubation, transfer all 8 mL of cell pellet to dounce. Cell lysis is complete after douncing 100 times. Aliquot cell lysis into 1.5-1.7 mL temporary-microcentrifuge tubes. Place tubes in centrifuge with “fins” out, and spin at 1,200×g for 5 mins. After the first spin use a 1 mL pipet to resuspend each tube and repeat spin. This acts as an additional lysis step, is more vigorous and increases lysate yield. During second spin get liquid N2 and a fresh conical tube on ice. After spin is complete, transfer supernatant (lysate) from microcentrifuge tubes into the 50 mL conical tube and keep on ice. Repeat steps 10-14 for all other cell pellets until completed. Once all cell lysate has been transferred to the 50 mL conical tube pipet to mix so the solution is homogenous. Transfer 1 mL of lysate into batch-labeled microcentrifuge tubes and flash freeze in liquid nitrogen. Be sure to pipet up and down to mix throughout transfer step. Place all tubes in the […] for long-term storage.
In vitro transcription-translation assay setup: Each assay includes a master mix containing lysate and shared components, a 96-well plate containing compound titrations for testing, a 96-well DNA plate with reporter constructs to be tested, 96-well skirted PCR plates, and 96-well flat-bottom, black, fluorescent assay plates. […]

MYC = experiment: In vitro transcription-translation (IVTT) assay, MYC reporter; assay type: biochemical; settings: HeLa S3 lysate, sfGFP/mCherry ratio, 2 hrs at 30° C.
Method in brief: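 Reporter: mCherry, P2A, then 3×FLAG-target peptide-sfGFP fusion, IRES-initiated; HeLa S3 lysate IVTT; cpd dilutions 30 μM−0.1 μM half-log in 100% DMSO (dilution-plate conc); DNA added last; 2 h, 30° C; PBS quench.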

Row | IC50 (ALK) | IC50 (MYC) | SMILES
1 | 10 to 20 µM |  | COc1ccc(C[C@H]2NC[C@H](O)[C@H]2OC(=O)NCCN2CCC3(CCC3)C2)cc1 [V187641, (2R,3S,4S)-4-hydroxy-2-[(4-methoxyphenyl)methyl]pyrrolidin-3-yl N-(2-{6-azaspiro[3.4]octan-6-yl}ethyl)carbamate]
2 | > 30 µM | > 30 µM | COc1ccc(C[C@H]2NC[C@H](O)[C@H]2OC(=O)Nc2nc3ccccc3s2)cc1 [V187753, (2R,3S,4S)-4-hydroxy-2-[(4-methoxyphenyl)methyl]pyrrolidin-3-yl N-(1,3-benzothiazol-2-yl)carbamate; trifluoroacetic acid]
3 | 10 to 20 µM | < 10 µM | COc1ccc(C[C@H]2NC[C@H](O)[C@H]2OC(=O)NCCN2CC[C@H](O)C2)cc1 [V187576, (2R,3S,4S)-4-hydroxy-2-[(4-methoxyphenyl)methyl]pyrrolidin-3-yl N-{2-[(3S)-3-hydroxypyrrolidin-1-yl]ethyl}carbamate trifluoroacetic acid salt]
4 | < 10 µM |  | COc1ccc(C[C@H]2NC[C@H](O)[C@H]2OC(=O)Nc2nc3ccccc3[nH]2)cc1 [V187754, (2R,3S,4S)-4-hydroxy-2-[(4-methoxyphenyl)methyl]pyrrolidin-3-yl N-(1H-1,3-benzodiazol-2-yl)carbamate]
5 | < 10 µM |  | CNC(=O)O[C@@H]1[C@@H](O)CN[C@@H]1Cc1ccc(OC)cc1 [V187583, (2R,3S,4S)-4-hydroxy-2-[(4-methoxyphenyl)methyl]pyrrolidin-3-yl N-methylcarbamate; trifluoroacetic acid]
6 | < 10 µM | 10 to 20 µM | COc1ccc(C[C@H]2NC[C@H](O)[C@H]2OC(=O)NCc2nn[nH]n2)cc1 [V187534, (2R,3S,4S)-4-hydroxy-2-[(4-methoxyphenyl)methyl]pyrrolidin-3-yl N-(2H-1,2,3,4-tetrazol-5-ylmethyl) carbamate; trifluoroacetic acid]
7 | < 10 µM | 10 to 20 µM | COc1ccc(C[C@H]2NC[C@H](O)[C@H]2OC(=O)Nc2nccs2)cc1 [V187752, (2R,3S,4S)-4-hydroxy-2-[(4-methoxyphenyl)methyl]pyrrolidin-3-yl N-(1,3-thiazol-2-yl)carbamate Hydrochloride]
8 | 20 to 30 µM | 10 to 20 µM | COc1ccc(C[C@H]2NC[C@H](O)[C@H]2OC(=O)NCCN2CC(O)C2)cc1 [V187579, (2R,3S,4S)-4-hydroxy-2-[(4-methoxyphenyl)methyl]pyrrolidin-3-yl N-[2-(3-hydroxyazetidin-1-yl)ethyl]carbamate; trifluoroacetic acid]
9 | 20 to 30 µM | > 30 µM | COc1ccc(C[C@H]2NC[C@H](O)[C@H]2OC(=O)NCCOCCN2CCNCC2)cc1 [V187626, (2R,3S,4S)-4-hydroxy-2-[(4-methoxyphenyl)methyl]pyrrolidin-3-yl N-{2-[2-(piperazin-1-yl)ethoxy]ethyl}carbamate; trifluoroacetic acid]
10 | > 30 µM | > 30 µM | COc1ccc(C[C@H]2NC[C@H](O)[C@H]2OC(=O)NCc2cn(-c3cc4ccc(O)cc4oc3=O)nn2)cc1 [V187692, (2R,3S,4S)-4-hydroxy-2-[(4-methoxyphenyl)methyl]pyrrolidin-3-yl N-{[1-(7-hydroxy-2-oxochromen-3-yl)-1,2,3-triazol-4-yl]methyl}carbamate; trifluoroacetic acid]
11 | < 10 µM | 20 to 30 µM | COc1ccc(C[C@H]2NC[C@H](O)[C@H]2OC(=O)NCCN)cc1 [V187575, (2R,3S,4S)-4-hydroxy-2-[(4-methoxyphenyl)methyl]pyrrolidin-3-yl N-(2-aminoethyl)carbamate; trifluoroacetic acid]
12 | 10 to 20 µM | > 30 µM | CCN(CC)CCNC(=O)O[C@@H]1[C@@H](O)CN[C@@H]1Cc1ccc(OC)cc1 [V187384, (2R,3S,4S)-4-hydroxy-2-[(4-methoxyphenyl)methyl]pyrrolidin-3-yl N-[2-(diethylamino)ethyl]carbamate]
